Data: article PMC3747596 (PLoS ONE, 2013)
Read-outs that look alike come from different tables or passages of the source.

Key:
[1] = molecular target: 5-HT2b (Homo sapiens, UniProt P41595); test: Radioligand displacement, 5-HT2b; format: binding
[2] = molecular target: T1, 5-HT2c (Homo sapiens, UniProt P28335); test: Radioligand displacement, 5-HT2c; format: binding
T1 sequence (P28335 33-458): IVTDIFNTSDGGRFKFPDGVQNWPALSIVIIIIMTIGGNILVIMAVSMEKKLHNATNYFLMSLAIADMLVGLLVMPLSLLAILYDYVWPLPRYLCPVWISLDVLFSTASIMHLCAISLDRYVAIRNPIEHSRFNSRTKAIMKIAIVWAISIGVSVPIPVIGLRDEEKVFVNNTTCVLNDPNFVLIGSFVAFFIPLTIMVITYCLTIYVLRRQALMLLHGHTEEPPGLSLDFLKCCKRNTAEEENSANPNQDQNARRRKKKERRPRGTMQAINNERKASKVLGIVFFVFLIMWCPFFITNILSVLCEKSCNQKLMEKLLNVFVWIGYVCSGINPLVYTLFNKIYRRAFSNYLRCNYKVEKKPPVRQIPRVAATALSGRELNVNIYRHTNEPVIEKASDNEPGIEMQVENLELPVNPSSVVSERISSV

[3] = molecular target: β2 (Homo sapiens, UniProt P07550); test: Radioligand displacement, β2; format: binding
[4] = molecular target: D2 (Homo sapiens, UniProt P14416); test: Radioligand displacement, D2; format: binding
[5] = molecular target: T2, D4 (Homo sapiens, UniProt P21917); test: Radioligand displacement, D4; format: binding
T2 sequence (P21917 1-419): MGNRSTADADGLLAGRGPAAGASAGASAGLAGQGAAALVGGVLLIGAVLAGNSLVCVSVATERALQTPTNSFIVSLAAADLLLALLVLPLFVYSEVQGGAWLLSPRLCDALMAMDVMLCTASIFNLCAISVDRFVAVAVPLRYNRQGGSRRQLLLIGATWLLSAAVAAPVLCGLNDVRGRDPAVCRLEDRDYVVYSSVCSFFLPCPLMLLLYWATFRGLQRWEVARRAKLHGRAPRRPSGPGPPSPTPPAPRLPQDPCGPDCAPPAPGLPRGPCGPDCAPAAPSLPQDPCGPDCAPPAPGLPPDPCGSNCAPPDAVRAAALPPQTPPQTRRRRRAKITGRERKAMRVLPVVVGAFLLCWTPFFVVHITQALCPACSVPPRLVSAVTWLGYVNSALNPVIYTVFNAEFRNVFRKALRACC

[6] = molecular target: M1 muscarinic receptors (M1-R) (Homo sapiens, UniProt P11229); test: Radioligand displacement, M1; format: binding
[7] = molecular target: M4 (Homo sapiens, UniProt P08173); test: Radioligand displacement, M4; format: binding
[8] = molecular target: noradrenaline (norepinephrine) transporter (NET) (Homo sapiens, UniProt P23975); test: Radioligand displacement, NET; format: binding
[9] = molecular target: NMDA receptors, phencyclidine (cation channel) site; test: Radioligand displacement, NMDA; format: binding, Rat; settings: for Ki: [3H] radioligand MK801, Rat, Brain
[10] = molecular target: SERT (Homo sapiens, UniProt P31645); test: Radioligand displacement, SERT; format: binding
[11] = molecular target: σ1 (Rattus norvegicus, UniProt Q9R0C9); test: Radioligand displacement, σ1; format: binding
[12] = molecular target: T3, M1-R (Homo sapiens, UniProt P11229)
[13] = molecular target: T3, M1-R; parameters: method as in ref 9 = [9]; 9 Inan S (2010) Pharmacological and neuroanatomical analysis of GNTI-induced repetitive behavior in mice [Ph.D. thesis Thesis]. Philadelphia, PA: Temple University. Available: http://digital.library.t; settings: at 1 µM; [3H]N-methylscopolamine; cited from earlier work
[14] = tested on: mice; settings: mice, cited from earlier work
[15] = cited from earlier work
[16] = tested on: human permeability glycoprotein (P-gp); settings: cited from earlier work
[17] = molecular target: H2 (Homo sapiens, UniProt P25021); test: Radioligand displacement, H2
[18] = Caco-2 cell monolayer permeation; settings: human, Caco-2, pH 7.4
[19] = molecular target: non-opioid receptors and transporters; test: Radioligand displacement panel, non-opioid targets; settings: read-out: K i for all non-opioid targets; 43 non-opioid targets
[20] = molecular target: noradrenaline transporter (NET) (Homo sapiens, UniProt P23975); test: Inhibition of noradrenaline transporter, fluorescent dye uptake; format: cell-based; settings: 95% CI = 0.5 to 2.6 µM; read-out: IC50, inhibition of noradrenaline transport
[21] = tested on: glucocorticoid receptor NR3C1; parameters: method as in PMID 10875228; settings: at 10 µM; cited from earlier work
[22] = tested on: nociceptin/orphanin FQ receptor (NOP); parameters: method as in PMID 11510482; settings: at 10 µM; cited from earlier work
[23] = [3H] radioligand N-Methylspiperone, Human, Cloned, read-out: Ki
[24] = [3H] radioligand QNB, Human, Cloned, read-out: Ki

Sequence of noradrenaline (norepinephrine) transporter (NET) (P23975 whole entry): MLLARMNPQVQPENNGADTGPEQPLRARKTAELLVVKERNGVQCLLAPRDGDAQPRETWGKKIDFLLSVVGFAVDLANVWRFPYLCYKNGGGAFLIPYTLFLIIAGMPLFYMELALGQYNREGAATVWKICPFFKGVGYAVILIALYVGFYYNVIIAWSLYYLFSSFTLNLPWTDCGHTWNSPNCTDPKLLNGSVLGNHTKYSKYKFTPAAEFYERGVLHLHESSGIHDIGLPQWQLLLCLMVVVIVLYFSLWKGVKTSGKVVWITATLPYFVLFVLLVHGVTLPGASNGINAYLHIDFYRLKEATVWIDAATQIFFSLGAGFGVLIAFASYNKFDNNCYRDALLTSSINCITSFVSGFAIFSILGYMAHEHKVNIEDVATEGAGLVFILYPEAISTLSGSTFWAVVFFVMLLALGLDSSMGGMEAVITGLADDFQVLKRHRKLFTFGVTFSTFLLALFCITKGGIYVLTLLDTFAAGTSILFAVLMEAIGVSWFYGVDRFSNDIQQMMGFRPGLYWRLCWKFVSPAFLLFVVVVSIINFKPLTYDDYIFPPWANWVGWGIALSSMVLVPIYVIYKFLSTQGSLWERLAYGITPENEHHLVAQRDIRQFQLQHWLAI
Sequence of β2 (P07550 whole entry): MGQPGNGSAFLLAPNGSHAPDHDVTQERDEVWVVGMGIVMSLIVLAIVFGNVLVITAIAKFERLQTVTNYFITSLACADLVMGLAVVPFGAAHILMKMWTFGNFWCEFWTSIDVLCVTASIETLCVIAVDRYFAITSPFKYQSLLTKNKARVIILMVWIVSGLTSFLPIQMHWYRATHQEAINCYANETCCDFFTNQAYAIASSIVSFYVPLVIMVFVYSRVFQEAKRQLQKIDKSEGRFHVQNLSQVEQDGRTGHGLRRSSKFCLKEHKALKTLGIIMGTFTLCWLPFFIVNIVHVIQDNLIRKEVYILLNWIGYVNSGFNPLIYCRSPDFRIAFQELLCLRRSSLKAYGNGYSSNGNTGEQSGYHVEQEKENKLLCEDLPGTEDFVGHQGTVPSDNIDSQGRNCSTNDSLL
Sequence of SERT (P31645 whole entry): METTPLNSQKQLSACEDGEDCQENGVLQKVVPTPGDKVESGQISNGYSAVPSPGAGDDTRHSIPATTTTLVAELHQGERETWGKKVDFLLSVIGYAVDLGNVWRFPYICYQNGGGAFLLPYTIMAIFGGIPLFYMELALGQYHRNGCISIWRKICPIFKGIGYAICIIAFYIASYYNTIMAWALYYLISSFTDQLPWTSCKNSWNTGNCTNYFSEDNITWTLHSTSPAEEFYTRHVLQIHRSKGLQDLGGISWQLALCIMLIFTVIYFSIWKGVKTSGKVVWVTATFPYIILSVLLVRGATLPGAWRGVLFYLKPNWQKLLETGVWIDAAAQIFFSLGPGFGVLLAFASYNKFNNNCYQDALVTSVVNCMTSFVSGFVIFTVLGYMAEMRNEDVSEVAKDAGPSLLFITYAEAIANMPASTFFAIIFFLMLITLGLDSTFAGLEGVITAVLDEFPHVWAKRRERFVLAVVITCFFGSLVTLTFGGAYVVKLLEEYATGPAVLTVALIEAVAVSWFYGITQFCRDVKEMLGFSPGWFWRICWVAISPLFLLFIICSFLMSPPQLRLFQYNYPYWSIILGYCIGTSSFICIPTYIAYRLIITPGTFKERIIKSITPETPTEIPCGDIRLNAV
Sequence of H2 (P25021 whole entry): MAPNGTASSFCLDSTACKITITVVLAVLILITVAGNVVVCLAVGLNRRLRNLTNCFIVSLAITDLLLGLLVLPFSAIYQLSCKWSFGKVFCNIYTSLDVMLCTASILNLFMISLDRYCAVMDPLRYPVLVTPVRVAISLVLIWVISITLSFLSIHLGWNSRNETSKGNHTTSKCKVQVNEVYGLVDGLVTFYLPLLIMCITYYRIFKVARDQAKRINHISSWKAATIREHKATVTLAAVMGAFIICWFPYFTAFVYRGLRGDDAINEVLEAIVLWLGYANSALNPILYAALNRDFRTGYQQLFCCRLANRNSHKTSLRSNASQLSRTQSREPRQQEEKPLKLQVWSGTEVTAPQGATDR
Sequence of D2 (P14416 whole entry): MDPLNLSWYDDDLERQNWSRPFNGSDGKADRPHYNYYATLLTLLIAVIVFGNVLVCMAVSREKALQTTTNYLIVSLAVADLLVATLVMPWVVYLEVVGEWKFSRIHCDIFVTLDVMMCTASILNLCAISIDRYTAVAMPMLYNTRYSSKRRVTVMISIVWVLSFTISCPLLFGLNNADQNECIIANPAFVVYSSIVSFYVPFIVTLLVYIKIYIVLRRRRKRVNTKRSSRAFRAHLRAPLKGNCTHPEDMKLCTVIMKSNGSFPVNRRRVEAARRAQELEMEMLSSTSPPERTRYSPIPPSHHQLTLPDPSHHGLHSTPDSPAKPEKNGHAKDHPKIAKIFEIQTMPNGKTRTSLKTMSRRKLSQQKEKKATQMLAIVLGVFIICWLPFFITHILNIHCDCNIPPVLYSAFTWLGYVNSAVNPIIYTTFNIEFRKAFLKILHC
Sequence of 5-HT2b (P41595 whole entry): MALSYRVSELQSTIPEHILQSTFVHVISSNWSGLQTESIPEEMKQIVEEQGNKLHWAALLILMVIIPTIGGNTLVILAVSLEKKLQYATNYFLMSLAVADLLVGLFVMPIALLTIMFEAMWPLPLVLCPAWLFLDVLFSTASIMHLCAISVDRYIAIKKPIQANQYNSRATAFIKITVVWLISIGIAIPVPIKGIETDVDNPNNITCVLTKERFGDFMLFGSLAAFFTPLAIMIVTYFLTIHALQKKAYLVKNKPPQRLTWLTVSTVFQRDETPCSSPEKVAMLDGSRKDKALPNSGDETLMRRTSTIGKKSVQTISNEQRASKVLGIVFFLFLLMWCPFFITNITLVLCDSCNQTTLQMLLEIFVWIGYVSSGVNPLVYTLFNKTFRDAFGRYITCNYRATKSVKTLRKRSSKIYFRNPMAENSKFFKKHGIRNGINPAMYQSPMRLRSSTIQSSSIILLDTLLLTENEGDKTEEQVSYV
T3 sequence (P11229 whole entry): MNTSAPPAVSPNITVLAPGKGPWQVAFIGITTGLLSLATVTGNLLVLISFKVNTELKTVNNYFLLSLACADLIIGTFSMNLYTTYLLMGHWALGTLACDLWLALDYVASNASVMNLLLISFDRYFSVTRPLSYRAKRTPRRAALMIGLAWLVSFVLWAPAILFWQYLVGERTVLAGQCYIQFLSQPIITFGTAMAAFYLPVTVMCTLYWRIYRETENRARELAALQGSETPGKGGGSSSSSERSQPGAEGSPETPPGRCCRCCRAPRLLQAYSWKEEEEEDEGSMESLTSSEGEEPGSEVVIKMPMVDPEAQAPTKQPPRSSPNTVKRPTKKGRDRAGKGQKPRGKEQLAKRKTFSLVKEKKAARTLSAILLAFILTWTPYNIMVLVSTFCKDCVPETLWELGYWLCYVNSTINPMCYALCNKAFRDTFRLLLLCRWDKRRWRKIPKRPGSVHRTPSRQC
Sequence of M1 muscarinic receptors (M1-R) (P11229 whole entry): as above
Sequence of σ1 (Q9R0C9 whole entry): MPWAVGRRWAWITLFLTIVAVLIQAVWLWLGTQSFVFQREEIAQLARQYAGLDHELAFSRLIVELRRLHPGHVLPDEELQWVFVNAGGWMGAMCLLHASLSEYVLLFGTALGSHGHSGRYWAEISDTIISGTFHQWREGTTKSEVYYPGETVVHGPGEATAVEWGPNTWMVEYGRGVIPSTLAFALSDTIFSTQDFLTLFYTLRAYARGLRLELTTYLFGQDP
Sequence of M4 (P08173 whole entry): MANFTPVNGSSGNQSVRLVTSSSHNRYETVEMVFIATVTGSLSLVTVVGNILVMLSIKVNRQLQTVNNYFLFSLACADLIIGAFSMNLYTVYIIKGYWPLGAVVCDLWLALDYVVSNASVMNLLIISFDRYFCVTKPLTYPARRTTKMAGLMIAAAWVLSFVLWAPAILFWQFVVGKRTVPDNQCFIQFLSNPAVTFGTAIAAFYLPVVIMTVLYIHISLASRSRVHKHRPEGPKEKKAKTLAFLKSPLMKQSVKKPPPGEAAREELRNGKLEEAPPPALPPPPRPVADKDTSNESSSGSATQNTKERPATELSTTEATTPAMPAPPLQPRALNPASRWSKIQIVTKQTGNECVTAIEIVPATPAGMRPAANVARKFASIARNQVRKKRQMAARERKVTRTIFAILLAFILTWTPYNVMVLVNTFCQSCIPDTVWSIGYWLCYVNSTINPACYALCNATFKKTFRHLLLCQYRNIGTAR
Sequence of noradrenaline transporter (NET) (P23975 whole entry): as the sequence (P23975 whole entry) above

Row | SMILES | Ki [1] [µM] | Ki [2] [µM] | Ki [3] [µM] | Ki [4] [µM] | Ki [5] [µM] | Ki [6] [µM] | Ki [7] [µM] | Ki [8] [µM] | Ki [9] [µM] | Ki [10] [µM] | Ki [11] [µM] | peak unbound concentration in plasma ([15]; dose 10 mg/kg) [µM] | decline of plasma concentration ([15]; within 4 hours) | decline of plasma concentration ([15]; within 24 hours) | substrate of human P-gp [16] | Ki [17] [µM] | Papp A→B at 120 min [18] [×10⁻⁶ cm/s] | Papp B→A at 120 min [18] [×10⁻⁶ cm/s] | toxic signs ([14]; 100 mg/kg) | other results
1 | N=C(N)Nc1ccc2[nH]c3c(c2c1)C[C@@]1(O)[C@H]2Cc4ccc(O)c5c4[C@@]1(CCN2CC1CC1)[C@H]3O5 [GNTI, 5′-guanidinonaltrindole] | ≥ 10 | ≥ 10 | ≥ 10 | ≥ 10 | ≥ 10 | ≥ 10 | ≥ 10 | ≥ 10 | ≥ 10 | ≥ 10 | ≥ 10 | 2 | over 80% | over 98% | not substrates | ≥ 10 | 88 | 270 |  | displacement from M1-R ([6]; at 10 µM, [3H]3-quinuclidinyl benzilate (QNB)): 49%; K B ([12]; antagonism of acetylcholine, calcium mobilization, 95% CI = 3.2 to 4.3 µM): 3.7 µM; activation of M1-R ([12]; calcium mobilization): did not activate M1-R; selectivity for κ-OR over M1-R ([12]; functional potency at κ-OR (ref 3) versus K B at M1-R): > 3,000 fold; displacement from M1-R [13]: 52%; time to ataxia, convulsions and death ([14]; 30 mg/kg i.p.): ≤ 18 min; toxic signs ([14]; 30 mg/kg i.p.): ataxia, convulsions and death; estimate of the unbound brain concentration ([15]; after 39 mg/kg): 5 nM; peak unbound concentration in plasma ([15]; dose 39 mg/kg): 8 µM; efflux ratio at 120 min [18]: 3.1; Ki [19]: > 2 µM
2 | CC(C)[C@@H](CN1CC[C@@](C)(c2cccc(O)c2)[C@@H](C)C1)NC(=O)[C@H]1Cc2ccc(O)cc2CN1 [JDTic] |  |  |  |  |  |  |  |  | ≥ 10 |  |  | 0.1 | over 80% | over 98% |  |  | 60 | 310 | no convulsions or deaths | Ki ([1]; [3H] radioligand LSD, Human, Cloned, read-out: Ki): ≥ 10 µM; Ki ([2]; [3H] radioligand Mesulergine, Human, Cloned, read-out: Ki): ≥ 10 µM; Ki ([3]; [3H] radioligand CGP12177, Human, Cloned, read-out: Ki): ≥ 10 µM; Ki [4, 23]: ≥ 10 µM; Ki [5, 23]: ≥ 10 µM; Ki [6, 24]: ≥ 10 µM; Ki [7, 24]: ≥ 10 µM; Ki ([8]; NET, versus [3H]nisoxetine (Table 1), read-out: K i): 0.054 µM; Ki ([10]; [3H] radioligand Citalopram, Human, Cloned, read-out: Ki): ≥ 10 µM; Ki ([11]; [3H] radioligand Pentazocine(+), Rat, Brain, read-out: Ki): 1.88 µM; Ki ([11]; binding curve File S1, Sigma-1 Receptor, [3H]Pentazocine (3.0 nM), Sigma Binding Buffer, read-out: Ki): 1.88 µM; Ki ([11]; σ1, radioligand displacement (Table 1), read-out: K i): 1.9 µM; IC50 [20]: 1.1 µM; Ki ([17]; K i, H2, radioligand displacement (Table 1)): 1.8 µM; Ki ([17]; Ki, [3H] radioligand Tiotidine, Human, Cloned): 1.79 µM; Ki ([17]; Ki, binding curve File S1, H2 Receptor, [3H]Tiotidine (3 nM), Histamine Binding Buffer): 1.79 µM
3 | Oc1ccc2c3c1O[C@H]1c4[nH]c5c(c4C[C@@]4(O)[C@@H](C2)N(CC2CC2)CC[C@]314)C[C@@]1(O)[C@H]2Cc3ccc(O)c4c3[C@@]1(CCN2CC1CC1)[C@H]5O4 [nor-BNI, Nor-binaltorphimine] | ≥ 10 | ≥ 10 | ≥ 10 | ≥ 10 | ≥ 10 | ≥ 10 | ≥ 10 | ≥ 10 | ≥ 10 | ≥ 10 | ≥ 10 | 3 | over 80% | over 98% | not substrates | ≥ 10 | 51 | 310 | no convulsions or deaths | displacement of [3H]MK-801 from the phencyclidine (cation channel) site ([9]; at 10 µM): did not displace; binding to glucocorticoid receptor NR3C1 [21]: No binding was detected; binding to NOP [22]: no binding
